{
  "source": "paper PMC9519446",
  "about": "“Discovery of an Orally Active Benzoxaborole Prodrug Effective in the Treatment of Chagas Disease in Non-human Primates” (Nature microbiology, 2022)",
  "key": {"[1]": {"tested_on": "T. cruzi of diverse genetic types (DTUs)", "experiment": "In vitro susceptibility of T. cruzi strains of diverse genetic types (DTUs)", "format": "cell-based", "details": "Trypanosoma cruzi", "protocol": "C57BL/6J mice were purchased from The Jackson Laboratory (Bar Harbor, ME), and B6.129S7-Ifngtm1Ts/J (IFN-gamma deficient) were bred in-house at the University of Georgia Animal Facility. The SKH-1 “hairless” mice backcrossed to C57BL/6 were a gift from Dr. Lisa DeLouise (University of Rochester). All the animals were maintained in the University of Georgia Animal Facility under specific pathogen–free conditions at 22°C, 50% humidity and in a 12:12 hs light:dark cycle. Male and female mice of 6 to 9 weeks of age were used. All mouse experiments were carried out in strict accordance with the Public Health Service Policy on Humane Care and Use of Laboratory Animals and Association for Assessment and Accreditation of Laboratory Animal Care accreditation guidelines. The protocol was approved by the University of Georgia Institutional Animal Care and Use Committee. […] Parasites genotypes were determined as previously described.\nThe in vitro anti-T. cruzi amastiogote activity assay was performed and optimized based on the protocol described previously. The change in tdTomato fluorescence intensity was determined as a measurement of growth over 72 hours of culture. For assaying drug effects on extracellular amastigotes, trypomastigotes were collected from infected Vero cell cultures and converted in acidic media as previously described. Amastigotes (50,000/well) were incubated with 2-fold serial dilutions of compounds for 48 hours. The ATP production was used as an indication of growth in this case, and was measured by ATPlite Luminescence ATP Detection Assay System (PerkinElmer). Both fluorescence and luminescence were read using a BioTek Synergy Hybrid Multi-Mode reader equipped with the software Gene5 v 2.0 (BioTek). The dose-response curve was generated by […] analysis with GraphPad Prism v9.4.0 (GraphPad Software)."}, "[2]": {"experiment": "Plasma protein binding (cyno)", "format": "in vitro ADME"}},
  "data": [
    {"smiles": "Cc1c(C(=O)NC(C(=O)OCc2ccc(F)c(F)c2)C(C)C)ccc2c1B(O)OC2", "note": "(centres unmarked) [AN14353]", "values": [
      {"measurement": "IC50", "setting": "[1]; Strain 20290, DTU TcI", "result": 3, "unit": "nM"},
      {"measurement": "IC90", "setting": "[1]; Strain 20290, DTU TcI", "result": 5, "unit": "nM"},
      {"measurement": "IC50", "setting": "[1]; Strain 20392, DTU TcIV", "result": 5, "unit": "nM"},
      {"measurement": "IC90", "setting": "[1]; Strain 20392, DTU TcIV", "result": 10, "unit": "nM"},
      {"measurement": "IC50", "setting": "[1]; Strain ARC0704, DTU TcI", "result": 3, "unit": "nM"},
      {"measurement": "IC90", "setting": "[1]; Strain ARC0704, DTU TcI", "result": 7, "unit": "nM"},
      {"measurement": "IC50", "setting": "[1]; Strain CL, DTU TcVI", "result": 6, "unit": "nM"},
      {"measurement": "IC90", "setting": "[1]; Strain CL, DTU TcVI", "result": 18, "unit": "nM"},
      {"measurement": "IC50", "setting": "[1]; Strain Colombiana, DTU TcI", "result": 7, "unit": "nM"},
      {"measurement": "IC90", "setting": "[1]; Strain Colombiana, DTU TcI", "result": 10, "unit": "nM"},
      {"measurement": "IC50", "setting": "[1]; Strain M5631, DTU TcIII", "result": 1, "unit": "nM"},
      {"measurement": "IC90", "setting": "[1]; Strain M5631, DTU TcIII", "result": 3, "unit": "nM"},
      {"measurement": "IC50", "setting": "[1]; Strain Montalvania, DTU TcI", "result": 1, "unit": "nM"},
      {"measurement": "IC90", "setting": "[1]; Strain Montalvania, DTU TcI", "result": 2, "unit": "nM"},
      {"measurement": "IC50", "setting": "[1]; Strain Tul8, DTU TcII", "result": 1, "unit": "nM"},
      {"measurement": "IC90", "setting": "[1]; Strain Tul8, DTU TcII", "result": 2, "unit": "nM"}
    ]},
    {"smiles": "Cc1c(C(=O)N[C@H](C(=O)OCC2CCOCC2)C(C)C)ccc2c1B(O)OC2", "note": "[AN15368]", "values": [
      {"measurement": "Funbound (cyno)", "setting": "[2]", "result": 21, "unit": "%"}
    ]}
  ]
}
